Where a name gives a salt, the structure may show the parent alone.

The data set can be described thus: in vitro. Particulars: human, hek293t cells.
Take `C=CC(=O)NCc1oc(CC)nc1C` [3-P15, N-[(2-ethyl-4-methyl-1,3-oxazol-5-yl)methyl]prop-2-enamide]: the viability at 48 h, 25 µM amounted to 74.7%.
Next, `C=CC(=O)N(CC)Cc1nc2ccsc2c(=O)[nH]1` [3-P16, N-ethyl-N-({4-oxo-3H,4H-thieno[3,2-d]pyrimidin-2-yl}methyl)prop-2-enamide]: 78.2%; `C=CC(=O)NC(C)c1ccc(-n2nc(C)cc2C)c(F)c1` (stereo not shown) [3-P17, N-{1-[4-(3,5-dimethyl-1H-pyrazol-1-yl)-3-fluorophenyl]ethyl}prop-2-enamide]: 76.1%.
Consider `C=CC(=O)NC1CS(=O)(=O)C1` [3-P18, N-(1,1-dioxo-1lambda6-thietan-3-yl)prop-2-enamide], for which the viability at 48 h, 25 µM is 105%.
Next, `C=CC(=O)NCc1ccccc1-n1nc(C)cc1C` [3-P19, N-{[2-(3,5-dimethyl-1H-pyrazol-1-yl)phenyl]methyl}prop-2-enamide]: 59.1%; `C=CC(=O)N1CCN(c2nccn(C)c2=O)CC1` [3-P20, 1-methyl-3-[4-(prop-2-enoyl)piperazin-1-yl]-1,2-dihydropyrazin-2-one]: 181%; `C=CC(=O)N1CCC(n2nc(C)nc2O)CC1` [3-P21, 1-[4-(5-hydroxy-3-methyl-1H-1,2,4-triazol-1-yl)piperidin-1-yl]prop-2-en-1-one]: 49.8%.
As for `C=CC(=O)NCc1ccc(-c2noc(C)n2)cc1` [3-P22, N-{[4-(5-methyl-1,2,4-oxadiazol-3-yl)phenyl]methyl}prop-2-enamide], the figure is 94.1%; as for `Cc1ccc(N(CCC#N)C(=O)CCl)cc1C` [4-A03, 2-chloro-N-(2-cyanoethyl)-N-(3,4-dimethylphenyl)acetamide], 0.265%.
As to `CC(Cl)C(=O)Nc1ccc(F)c(Cl)c1` (stereo not shown) [4-A04, 2-chloro-N-(3-chloro-4-fluorophenyl)propanamide], the viability at 48 h, 25 µM is 56.5%.
Next, `O=C(CCl)NCc1cc([N+](=O)[O-])ccc1O` [4-A05, 2-chloro-N-[(2-hydroxy-5-nitrophenyl)methyl]acetamide]: 1.29%.
As to `O=C(CCl)Nc1sc2c(c1C(=O)c1ccccc1)CCCC2` [4-A06, N-(3-benzoyl-4,5,6,7-tetrahydro-1-benzothiophen-2-yl)-2-chloroacetamide], the viability at 48 h, 25 µM is 0.213%.
As for `Cc1ccc(NC(=O)CCl)c([N+](=O)[O-])c1` [4-A07, 2-chloro-N-(4-methyl-2-nitrophenyl)acetamide], the figure is 2.99%; as for `O=C(CCl)NC(c1ccccc1)c1ccco1` (stereo not shown) [4-A08, 2-chloro-N-[(furan-2-yl)(phenyl)methyl]acetamide], 2.75%.
Next, `Cc1ccc(NC(=O)CCl)cc1S(=O)(=O)N(C)C` [4-A09, 2-chloro-N-[3-(dimethylsulfamoyl)-4-methylphenyl]acetamide]: -0.165%; `O=C(CCl)NCCN1C(=O)SC(=Cc2ccccc2F)C1=O` [4-A10, 2-chloro-N-(2-{5-[(2-fluorophenyl)methylidene]-2,4-dioxo-1,3-thiazolidin-3-yl}ethyl)acetamide]: -0.106%.
Next, `COc1ccc(-c2csc(NC(=O)CCl)n2)c(O)c1` [4-A11, 2-chloro-N-[4-(2-hydroxy-4-methoxyphenyl)-1,3-thiazol-2-yl]acetamide]: -0.257%; `CC(Cl)C(=O)Nc1ccc(S(=O)(=O)N2CCCCC2)cc1` (stereo not shown) [4-A12, 2-chloro-N-[4-(piperidine-1-sulfonyl)phenyl]propanamide]: 64.8%; `COc1ccc(C(NC(=O)CCl)C(C)C)cc1` (stereo not shown) [4-A13, 2-chloro-N-[1-(4-methoxyphenyl)-2-methylpropyl]acetamide]: 11.2%.
Consider `CC(Cl)C(=O)Nc1ccc(Cl)cc1C(F)(F)F` (stereo not shown) [4-A14, 2-chloro-N-[4-chloro-2-(trifluoromethyl)phenyl]propanamide], for which the viability at 48 h, 25 µM was found to be 50.2%.
Next, `NC(=O)CSc1ccccc1NC(=O)CCl` [4-A15, 2-{[2-(2-chloroacetamido)phenyl]sulfanyl}acetamide]: 1.71%; `Cc1cc(C(C)(C)C)cc(C)c1CCNC(=O)CCl` [4-A16, N-[2-(4-tert-butyl-2,6-dimethylphenyl)ethyl]-2-chloroacetamide]: 0.58%; `CC(C)Cc1nnc(NC(=O)CCl)s1` [4-A17, 2-chloro-N-[5-(2-methylpropyl)-1,3,4-thiadiazol-2-yl]acetamide]: 0.521%.
Next, `CN(CC(=O)NCc1ccco1)C(=O)CCl` [4-A18, 2-chloro-N-({[(furan-2-yl)methyl]carbamoyl}methyl)-N-methylacetamide]: 0.0249%; `COc1ccc2cc(CN(C)C(=O)CCl)ccc2c1` [4-A19, 2-chloro-N-[(6-methoxynaphthalen-2-yl)methyl]-N-methylacetamide]: -0.134%; `O=C(CCl)Nc1cc(-c2ccccc2)nn1-c1ccccc1` [4-A20, 2-chloro-N-(1,3-diphenyl-1H-pyrazol-5-yl)acetamide]: 0.296%.
Next, `Cc1ccc(Oc2ccc(Cl)cc2NC(=O)CCl)cc1` [4-A21, 2-chloro-N-[5-chloro-2-(4-methylphenoxy)phenyl]acetamide]: 98.6%.
Consider `O=C(CCl)N1N=C(c2ccccc2)CC1c1ccc2nccnc2c1` (stereo not shown) [4-A22, 2-chloro-1-[3-phenyl-5-(quinoxalin-6-yl)-4,5-dihydro-1H-pyrazol-1-yl]ethan-1-one], for which the viability at 48 h, 25 µM is 0.127%.
As for `CC(NC(=O)CCl)c1ccc2c(c1)CCCC2` (stereo not shown) [4-B03, 2-chloro-N-[1-(5,6,7,8-tetrahydronaphthalen-2-yl)ethyl]acetamide], the figure is 1.06%; as for `O=C(CCl)Nc1cc(C(=O)O)cc(C(=O)O)c1` [4-B04, 5-(2-chloroacetamido)benzene-1,3-dicarboxylic acid], 107%.
Next, `CN(CC(=O)Nc1ccc(F)cc1)C(=O)CCl` [4-B05, 2-chloro-N-{[(4-fluorophenyl)carbamoyl]methyl}-N-methylacetamide]: 0.41%; `O=C(CCl)Nc1cc(Cl)c(Cl)cc1Cl` [4-B06, 2-chloro-N-(2,4,5-trichlorophenyl)acetamide]: 0.135%; `CC(NC(=O)c1ccccc1NC(=O)CCl)c1ccccc1` (stereo not shown) [4-B07, 2-(2-chloroacetamido)-N-(1-phenylethyl)benzamide]: 0.478%.
Next, `COc1ccc(NC(=O)CCl)cc1S(=O)(=O)N1CCCCC1` [4-B08, 2-chloro-N-[4-methoxy-3-(piperidine-1-sulfonyl)phenyl]acetamide]: 0.454%.
`Cc1cccc(Cc2cnc(NC(=O)CCl)s2)c1` [4-B09, 2-chloro-N-{5-[(3-methylphenyl)methyl]-1,3-thiazol-2-yl}acetamide]: the viability at 48 h, 25 µM is -0.447%.
Consider `O=C(CCl)Nc1ccc(SC(F)F)cc1` [4-B10, 2-chloro-N-{4-[(difluoromethyl)sulfanyl]phenyl}acetamide], for which the viability at 48 h, 25 µM is -0.0257%.
Next, `O=C(CCl)N(Cc1ccc(F)cc1)C12CC3CC(CC(C3)C1)C2` [4-B11, N-(adamantan-1-yl)-2-chloro-N-[(4-fluorophenyl)methyl]acetamide]: -0.169%; `O=C(CCl)Nc1ccc2ccccc2c1` [4-B12, 2-chloro-N-(naphthalen-2-yl)acetamide]: 0.59%; `Cc1ccc(C(=O)CN(C(=O)CCl)c2ccccc2)cc1` [4-B13, 2-chloro-N-[2-(4-methylphenyl)-2-oxoethyl]-N-phenylacetamide]: 0.038%.
Next, `O=C(CCl)Nc1ccc(S(=O)(=O)Nc2nccs2)cc1` [4-B14, 2-chloro-N-{4-[(1,3-thiazol-2-yl)sulfamoyl]phenyl}acetamide]: 1.19%.
As for `CC(Cl)C(=O)Nc1c(C(C)C)cccc1C(C)C` (stereo not shown) [4-B15, N-[2,6-bis(propan-2-yl)phenyl]-2-chloropropanamide], the figure is 93.3%.
In the case of `CC(Cl)C(=O)Nc1c(Cl)cccc1Cl` (stereo not shown) [4-B16, 2-chloro-N-(2,6-dichlorophenyl)propanamide], the viability at 48 h, 25 µM is 128%.
Next, `CCOC(=O)c1ccccc1NC(=O)CCl` [4-B17, ethyl 2-(2-chloroacetamido)benzoate]: 45.3%; `O=C(CCl)Nc1ccccc1S(=O)(=O)C(F)F` [4-B18, 2-chloro-N-(2-difluoromethanesulfonylphenyl)acetamide]: 38.2%; `Cc1ccc(C(=O)c2ccccc2)c(NC(=O)CCl)c1` [4-B19, N-(2-benzoyl-5-methylphenyl)-2-chloroacetamide]: 0.105%.
As for `O=C(CCl)N(Cc1ccccc1)CC(F)(F)F` [4-B20, N-benzyl-2-chloro-N-(2,2,2-trifluoroethyl)acetamide], the figure is 1.12%; as for `CN(C)C(CNC(=O)CCl)c1ccccc1` (stereo not shown) [4-B21, 2-chloro-N-[2-(dimethylamino)-2-phenylethyl]acetamide hydrochloride], 79.8%; as for `N#Cc1nc(-c2ccco2)oc1N1CCN(C(=O)CCl)CC1` [4-B22, 5-[4-(2-chloroacetyl)piperazin-1-yl]-2-(furan-2-yl)-1,3-oxazole-4-carbonitrile], 0.503%.
With `O=C(CCl)Nc1ccccc1C(=O)NCc1ccccc1` [4-C03, N-benzyl-2-(2-chloroacetamido)benzamide], the viability at 48 h, 25 µM is 0.33%.
As for `Cc1c(C#N)c(NC(=O)CCl)n(Cc2cccs2)c1C` [4-C04, 2-chloro-N-{3-cyano-4,5-dimethyl-1-[(thiophen-2-yl)methyl]-1H-pyrrol-2-yl}acetamide], the figure is 0.255%; as for `CCN(CC)C(=O)c1ccc(NC(=O)CCl)cc1` [4-C05, 4-(2-chloroacetamido)-N,N-diethylbenzamide], 0.463%.
As for `Cc1ccc(-c2cc(NC(=O)CCl)n(-c3ccccc3)n2)cc1` [4-C06, 2-chloro-N-[3-(4-methylphenyl)-1-phenyl-1H-pyrazol-5-yl]acetamide], the figure is -0.283%.

The values above are taken from publication PMC11995724, “Antibiotic target discovery by integrated phenotypic and activity-based profiling of electrophilic fragments” (Cell chemical biology, 2025).
